One data set relates to rat mast cell (RBL-2H3). The experiment in a line: β-hexosaminidase assay (mast cell degranulation). The data set is classed as cell-based. As for the experimental part: FIG. 10 represents experimental results of β-hexosaminidase assay for hirsutanonol. The β-hexosaminidase (beta-hex) assay was performed according to the standard protocol of RBL-2H3 cell line. Suitable supernatant was collected and beta-hex activity was measured by incubating with a beta-hex substrate (p-nitrophenyl N-acetyl-beta-D-glucosaminide; Sigma) colored at 405 nm by cutting.
For testing the degranulation in rat mast cell (RBL-2H3) by hirsutanonol, β-hexosaminidase assay was carried out. β-hexosaminidase assay allows us to measure the activity and degranulation of mast cells.

Data set [1] deals with IL-2. The experiment in a line: IL-2 mRNA expression in anti-CD3 activated splenocytes, RT-PCR. The data set is classed as cell-based, mouse. As for the experimental part:
(§1) FIG. 9 represents RT-PCR results showing an inhibitory effect of hirsutanonol on Th1 and Th2 cytokine expression. Murine splenocytes were cultured on 12 well plate (RT-PCR) at a concentration of 1.5×10^4 cells per well. For T cell activation, CsA (50 nM) and hirsutanonol were added into a well added with anti-CD3 mAb and all of other wells. Cells were incubated for 24 hrs and then […] was carried out. GAPDH was served as an internal control.
(§2) The mRNA expression levels of Th1 cytokines, IL-2 and Th2 cytokines, IL-4, IL-10 and IL-13 were examined. T cells activated by anti-CD3 mAb among spleen lymphocytes were used as a target. The primer sequences used to analyze IL-2, IL-4, IL-10 and IL-13 mRNA are as follows.

The next data set concerns IL-10. Kind of data set: IL-10 mRNA expression in anti-CD3 activated splenocytes, RT-PCR. The data set is classed as cell-based, mouse. The procedure:
as §1, §2

In the next data set the test system is IL-4. The experiment in a line: IL-4 mRNA expression in anti-CD3 activated splenocytes, RT-PCR. The data set is classed as cell-based, mouse. As for the experimental part: as §1, §2
Another data set concerns Jurkat cells. Kind of data set: Inhibition of cell proliferation, CCK assay (WST-8). The data set is classed as cell-based, human. The procedure: FIG. 7 is a graph measuring the inhibitory effect of hirsutanonol on cell proliferation. Jurat cells were seeded into a 96 well plate at a concentration of 1×10^4 cells per well, and cultured in 2% FBS DMEM with or without hirsutanonol. Cell numbers were counted in triplicate wells by measuring the absorbance of reduced WST-8 (Dojindo, Japan) at 450 nm.
Hirsutanonol activity to inhibit cell proliferation of Jurkat cells was tested using CCK assay. […] Therefore, about 50 μg/ml of hirsutanonol was used in experiments to assess in vitro activity of hirsutanonol.

Data set [2] concerns IL-2. Kind of data set: IL-2 expression in anti-CD3 activated murine splenocytes, ELISA. The data set is classed as cell-based, mouse. As for the experimental part: FIG. 8 is the experimental results showing the inhibitory effect of hirsutanonol on IL-2 expression. Murine splenocytes were grown on 96 well plate at a concentration of 1.5×10^4 cells per well. For T cell activation, CsA (50 nM) and hirsutanonol were added into a well added with anti-CD3 mAb and into all of other wells. Cells were incubated for 72 hrs and then ELISA was carried out using the supernatants collected from each well.
IL-2 is a cytokine expressed in Th1 cells and plays a crucial role in the proliferation of T cells. Hirsutanonol was added to splenic T cells which have been primarily cultured from murine splenocytes and pre-activated by anti-CD3 mAb. Inhibitory activity of hirsutanonol on IL-2 expression was measured using ELISA. Cyclosporine A (CsA) with strong inhibitory activity against IL-2 secretion was served as a positive control.
For orientation: An ELISA detects its analyte on a solid surface through an enzyme-linked reagent.

In another data set the test system is CD25/CD69. Kind of data set: T-cell early activation markers, flow cytometry. The data set is classed as cell-based, mouse. Conditions: 100 μg/ml, splenocytes stimulated by anti-CD3 mAb, 24 hrs. As for the experimental part: FIG. 12 is a flow cytometry result analyzing the changes of CD25/CD69 expression induced by hirsutanonol. Splenocytes were stimulated by anti-CD3 mAb in the presence or absence of hirsutanonol. Each hirsutanonol and CsA was treated at concentrations of 50 and 100 μg/ml, and 50 nM. After incubation for 24 hrs, the percentage of cells expressing CD25 and CD69 were measured using flow cytometry.
CD25 and CD69 expression levels were comparatively measured in the group of basal, CsA and hirsutanonol (50, 100 μg/ml) respectively. CsA was used as a control group due to its strong inhibitory activity on CD25 and CD69 expression. The results were represented in FIG. 12.

The subject of data set [3] is BSA (bovine serum albumin). The experiment in a line: BSA degradation test (anti-oxidative activity, Cu2+/H2O2). The data set is classed as biochemical.
Method: The hydroxyl radical-mediated oxidation experiments were carried out by metal-catalyzed reactions. BSA (bovine serum albumin) was dissolved in 150 mM phosphate buffer (pH 7.3) to a final concentration of 0.5 mg/ml. […] 50 μg/ml of ascorbic acid was directly dissolved in 1×PBS and served as a control (an anti-oxidant). After incubation in an open tube, the reaction was kept to stand in a 37° C. shaking water bath. Each experimental group was loaded on 10% SDS-PAGE and stained with 0.01% Coomassie blue.
50 μg of BSA (Sigma) was added to 37.5 mM phosphate buffers (pH 7.3) containing 100 μM Cu^2+, 2.5 mM H2O2 and various amounts of hirsutanonol (1, 50, 100/200 μg/ml), and incubated at 37° C. for 2 hrs. Vitamin C (50 μg/ml) was served as a positive control. The reaction mixture was separated on 10% SDS gel and the protein bands were stained with 0.01% Coomassie blue.
Evaluation of anti-oxidative activity was preformed according to a BSA (bovine serum albumin) degradation test. BSA degradation test is a method to verify a capacity of an anti-oxidative compound which protects proteins or enzymes from damage by reactive oxygen species (ROS) using a metal ion-catalyzed reaction. […] The reaction mixture was electrophoresized on 10% SDS-PAGE (SDS-polyacrylamide gel).
To examine anti-oxidative activity of hirsutanonol, the removal of radical produced from H2O2/Cu^2+ was measured.
In the next data set the test system is IL-13. The experiment in a line: IL-13 mRNA expression in anti-CD3 activated splenocytes, RT-PCR. The data set is classed as cell-based, mouse. As for the experimental part: as §1, §2
The nature of data set [4]: Solubility in water on preparing the stock solution. Conditions: stock solution preparation.
From the text: The final concentration of DMSO was adjusted to not more than 0.1% so as to maximally exclude the interference of the solvent. […] The prepared stock solutions were stored and then used after dilution to the suitable concentration.

The structures appear in SMILES notation.

As to `O=C(CCc1ccc(O)c(O)c1)CC(O)CCc1ccc(O)c(O)c1` (stereo not drawn) [hirsutanonol], the “activity level of β-hexosaminidase” value in the data set with rat mast cell (RBL-2H3) (100 μg/ml) is reported as “maximally inhibited”. Moreover, in the data set with rat mast cell (RBL-2H3) (β-hexosaminidase), the “inhibitory capability compared to CsA” value is recorded as 20 fold. For the same molecule, the “inhibitory activity on IL-2 mRNA expression” value with IL-2 [1] (50 μg/ml or 100 μg/ml) is “significant inhibitory activity”. The “inhibitory effect on IL-2 mRNA expression compared to CsA” value in the data set with IL-2 [1] (100 μg/ml, CsA 50 nM) is “inhibitory effect equal to CsA”. Also, the “inhibitory activity on IL-10 mRNA expression” value in the data set on IL-10 (50 μg/ml or 100 μg/ml) is on record as “significant inhibitory activity”. In addition, the “inhibitory effect on IL-10 mRNA expression compared to CsA” value with IL-10 (100 μg/ml, CsA 50 nM) is “inhibitory effect equal to CsA”. Also, the “inhibitory activity on IL-4 mRNA expression” value with IL-4 (50 μg/ml or 100 μg/ml) is “significant inhibitory activity”. For the same molecule, in the data set on IL-4 (100 μg/ml, CsA 50 nM), the “inhibitory effect on IL-4 mRNA expression compared to CsA” value is “inhibitory effect equal to CsA”. In addition, the “concentration exhibiting inhibitory effects on cell proliferation” value in the data set on Jurkat cells was “over 50 μg/ml”. Besides, in the data set with IL-2 [2] (50 μg/ml or 100 μg/ml, CsA 50 nM, 72 hrs), the “inhibitory effect on IL-2 expression compared to CsA” value is “much higher than that of CsA”. In addition, the “inhibition effect on IL-2 secretion” value in the data set on IL-2 [2] (50 μg/ml, without cytotoxicity) is listed as “remarkably exhibited”. Further, in the data set on CD25/CD69, the “inhibitory activity on CD25/CD69 expression compared to basal and CsA” value was “excellent inhibitory activity”. The BSA protection effect entry in [3] (hirsutanonol 100 μg/ml) was “significantly exhibited BSA protection effect”. For the same molecule, the “activity to protect BSA” value in [3] (hirsutanonol 1, 50, 100/200 μg/ml, Cu2+ 100 μM, H2O2 2.5 mM) was “increased in a concentration-dependent manner”. For the same molecule, the “BSA protection effect compared to Vitamin C” value in data set [3] (hirsutanonol, Vitamin C 50 μg/ml positive control) is “lower than that of Vitamin C”. Also, the “inhibitory activity on IL-13 mRNA expression” value in the data set with IL-13 (50 μg/ml or 100 μg/ml) is on record as “significant inhibitory activity”. For the same molecule, the “inhibitory effect on IL-13 mRNA expression compared to CsA” value in the data set with IL-13 (100 μg/ml, CsA 50 nM) is listed as “inhibitory effect equal to CsA”.

For `O=C(CCc1ccc(O)c(O)c1)C[C@H](CCc1ccc(O)c(O)c1)O[C@@H]1OC[C@@H](O)[C@H](O)[C@H]1O` [oregonin], the solubility in water entry in [4] is listed as “feasibly dissolved in water”.

For the origin of these results see patent publication US20100190729A1 (CHUNG-ANG University Industry Academic Cooperation …, priority 2009, published 2010).
